# Measurements published in US6068838A, “Purified multimerase” (Baxter Aktiengesellschaft, priority 1996, dated 2000).
# Read-outs that look alike come from different tables or passages of the source. Residues, ends and D or L forms follow the SMILES beside them. *: point of attachment. Cbz = O=C(OCc1ccccc1)*; CHN2 = [N-]=[N+]=C*
# How the values were obtained:
# vWF-cleaving protease [1] = biological target: T1, vWF-cleaving protease (Homo sapiens, UniProt Q76LX8); assay: Influence of metal ions on the activity of the vWF-cleaving protease; type: biochemical; details: 95 μl protease preincubated 15 minutes at 37° C. with 5 μl of 0.2 M salt solution
# T1 construct: Purification of Protease from Plasma; from tissue; host or cells: plasma (fibrinogen removed before chromatography)
# T1 sequence (Q76LX8 75-1427): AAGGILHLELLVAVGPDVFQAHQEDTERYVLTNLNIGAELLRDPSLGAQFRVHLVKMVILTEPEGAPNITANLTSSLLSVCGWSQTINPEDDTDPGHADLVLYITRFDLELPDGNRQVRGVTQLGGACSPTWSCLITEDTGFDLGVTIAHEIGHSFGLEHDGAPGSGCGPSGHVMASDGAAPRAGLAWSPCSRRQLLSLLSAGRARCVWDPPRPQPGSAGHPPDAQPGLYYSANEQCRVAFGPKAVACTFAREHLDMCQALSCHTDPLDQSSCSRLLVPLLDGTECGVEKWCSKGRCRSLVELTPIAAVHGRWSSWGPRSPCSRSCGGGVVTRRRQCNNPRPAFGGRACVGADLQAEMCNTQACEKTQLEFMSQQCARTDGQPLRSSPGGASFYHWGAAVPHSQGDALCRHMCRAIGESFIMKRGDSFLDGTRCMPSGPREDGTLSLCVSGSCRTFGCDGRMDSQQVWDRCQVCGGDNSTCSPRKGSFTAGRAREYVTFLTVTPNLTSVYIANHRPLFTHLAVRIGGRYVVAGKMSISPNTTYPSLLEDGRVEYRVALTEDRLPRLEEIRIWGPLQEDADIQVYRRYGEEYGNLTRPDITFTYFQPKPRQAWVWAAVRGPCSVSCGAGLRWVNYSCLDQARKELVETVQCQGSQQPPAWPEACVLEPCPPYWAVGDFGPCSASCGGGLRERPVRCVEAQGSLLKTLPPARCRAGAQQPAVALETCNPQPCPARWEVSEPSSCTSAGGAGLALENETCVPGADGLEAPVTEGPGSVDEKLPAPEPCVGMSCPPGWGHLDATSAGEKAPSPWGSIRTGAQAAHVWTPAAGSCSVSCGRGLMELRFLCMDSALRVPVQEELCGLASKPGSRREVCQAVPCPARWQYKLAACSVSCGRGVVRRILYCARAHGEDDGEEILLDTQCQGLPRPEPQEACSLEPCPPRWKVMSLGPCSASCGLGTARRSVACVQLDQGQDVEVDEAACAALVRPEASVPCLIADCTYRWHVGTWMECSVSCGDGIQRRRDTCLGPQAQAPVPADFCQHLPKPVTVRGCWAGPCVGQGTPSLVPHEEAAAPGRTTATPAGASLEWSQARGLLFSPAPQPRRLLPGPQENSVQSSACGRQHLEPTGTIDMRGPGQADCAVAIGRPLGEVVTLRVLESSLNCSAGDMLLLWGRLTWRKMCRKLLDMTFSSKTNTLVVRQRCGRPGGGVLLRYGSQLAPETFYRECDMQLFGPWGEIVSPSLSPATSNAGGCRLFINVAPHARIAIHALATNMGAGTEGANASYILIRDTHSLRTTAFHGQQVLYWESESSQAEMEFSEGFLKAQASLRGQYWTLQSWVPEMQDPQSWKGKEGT
# vWF-cleaving protease [2] = biological target: T1, vWF-cleaving protease; assay: Effect of protease inhibitors on vWF degradation; type: biochemical; details: for effect of peptidyl-diazomethylketone inhibitors on proteolytic degradation of vWF: final concentration 0.1 mM during preincubation with barium-activated protease
# plasmin = biological target: T2, plasmin (Homo sapiens, UniProt P00747); assay: Degradation of vWF with plasmin with and without inhibitors; type: biochemical; details: for effect of inhibitor on plasmin-induced reduction of high multimers of cryoprecipitate: incubation for more than 8 hours; for effect of inhibitor on plasmin degradation of r-vWF: plasmin reduced to 1:10, about 20 hours
# T2 construct: plasmin being diluted to 0.2 U/ml in 20 mM TBS buffer, pH 8.3
# T2 sequence (P00747 581-810): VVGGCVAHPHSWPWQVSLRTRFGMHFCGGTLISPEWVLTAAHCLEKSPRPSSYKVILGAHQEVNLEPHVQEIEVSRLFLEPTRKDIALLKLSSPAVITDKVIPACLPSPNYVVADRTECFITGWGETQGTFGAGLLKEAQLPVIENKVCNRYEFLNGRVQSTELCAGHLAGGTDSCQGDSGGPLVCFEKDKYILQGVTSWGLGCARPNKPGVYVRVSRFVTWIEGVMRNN
# T2 sequence (P00747 97-580): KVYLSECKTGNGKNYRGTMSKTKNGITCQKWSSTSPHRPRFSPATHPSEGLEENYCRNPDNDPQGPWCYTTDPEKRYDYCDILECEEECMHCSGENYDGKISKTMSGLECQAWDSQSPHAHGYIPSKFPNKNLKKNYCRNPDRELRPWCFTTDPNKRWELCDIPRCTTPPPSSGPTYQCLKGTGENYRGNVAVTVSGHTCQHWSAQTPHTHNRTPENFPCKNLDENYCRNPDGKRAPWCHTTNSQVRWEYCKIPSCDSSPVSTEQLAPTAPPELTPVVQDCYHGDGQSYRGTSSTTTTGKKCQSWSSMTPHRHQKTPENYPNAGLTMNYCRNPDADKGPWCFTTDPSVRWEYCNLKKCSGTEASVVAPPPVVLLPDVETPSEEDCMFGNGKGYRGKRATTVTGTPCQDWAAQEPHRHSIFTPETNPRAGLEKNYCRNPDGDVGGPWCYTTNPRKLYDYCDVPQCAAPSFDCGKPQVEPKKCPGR
# Experimental: (§1) Analysis of the r-vWF and its proteolytic degradation products was performed on 1% and 2% agarose gels, also according to the method of Ruggeri et al. (Blood 57 (1981), 1140-1143). The vWF multimers were made visible by immunoenzymatic staining according to Aihara et al. (Thromb. Haemostas. 55 (1986), 263-267). A rabbit-anti-von Willebrand factor-antiserum (from Dakopatts, Glostrup, Denmark) was used as the primary antibody, and an alkaline phosphatase-conjugated, affinity-purified goat-anti-rabbit IgG H+L-antibody (from Axell Accurate Chemical and Scientific Corp, Westburg, N.Y.) served as the secondary antibody. Staining of the protein bands was effected by means of the nitroblue tetrazolium/bromochloro-indolyl-phosphate substrate system.
# vWF protease = biological target: T3, vWF protease (Homo sapiens, UniProt Q76LX8); assay: Degradation of vWF by the vWF protease in the presence of aprotinin or PPACK; type: biochemical; details: for degradation of recombinant vWF by the protease in the presence of inhibitor: inhibitor concentration at which no protease activity detected with a chromogenic substrate of plasmin
# T3 construct: the preparation prepared according to the invention with the vWF-specific protease; from tissue
# T3 sequence (Q76LX8 75-1427): T1 sequence (Q76LX8 75-1427)
# Experimental: The concentration of aprotinin and PPACK was chosen such that no protease activity could be detected with a chromogenic substrate of plasmin.
# In this experiment, the degradation products of the recombinant vWF with the protease according to the invention were the satellite bands developed and the central bands. Actually all bands were very similar to plasmatic vWF (FIG. 14 (panel C)).
# as §1
# [3] = Incubation of r-vWF in vWF-deficient human plasma; type: in vitro ADME
# Experimental: Further tests investigated whether a proteolytic degradation of r-vWF took place during incubation with human plasma (cf. FIG. 18). For this, the r-vWF preparation was mixed with equal volumes of a vWF-deficient plasma (cf. FIG. 18 (panel A)) and incubated for 48 hours, samples being taken at various times. No change of the r-vWF over time could be detected.
# as §1
molecule,measurement,setting,value
"[Ba+2].[Cl-].[Cl-] [Ba^2+, BaCl2]",activation of the protease by metal ions,vWF-cleaving protease [1],substantial activation
"[Ca+2].[Cl-].[Cl-] [Ca^2+, CaCl2]",activation of the protease by metal ions,vWF-cleaving protease [1],substantial activation
"CC(=O)[O-].CC(=O)[O-].[Cd+2] [Cd^2+, Cd(CH3 COO)2]",activation of the protease by metal ions,vWF-cleaving protease [1],no activation
"O=S(=O)([O-])[O-].[Co+2] [Co^2+, CoSO4]",activation of the protease by metal ions,vWF-cleaving protease [1],no activation
"O=S(=O)([O-])[O-].[Cu+2] [Cu^2+, CuSO4]",activation of the protease by metal ions,vWF-cleaving protease [1],no activation
O=C(O)CN(CCN(CC(=O)O)CC(=O)O)CC(=O)O [EDTA],inhibition of the barium-preincubated protease (vWF degradation by SDS agarose electrophoresis and immunoblotting),vWF-cleaving protease [2],inhibit the barium-preincubated protease completely
"O=C(O)CN(CCOCCOCCN(CC(=O)O)CC(=O)O)CC(=O)O [ESTA, EGTA]",inhibition of the barium-preincubated protease (vWF degradation by SDS agarose electrophoresis and immunoblotting),"vWF-cleaving protease [2]; inhibitor final concentration 10 mM, 15 minutes preincubation at 37° C.",inhibit the barium-preincubated protease completely
"NC(=O)CI [IAA, iodoncetamide]",inhibition of the barium-preincubated protease (vWF degradation by SDS agarose electrophoresis and immunoblotting),vWF-cleaving protease [2],did not result in protease inhibition
"[Cl-].[Cl-].[Mg+2] [Mg^2+, MgCl2]",activation of the protease by metal ions,vWF-cleaving protease [1],slight activation
"[Cl][Mn][Cl] [Mn^2+, MnCl2]",activation of the protease by metal ions,vWF-cleaving protease [1],no activation
"CCN1C(=O)C=CC1=O [NEM, N-ethylmaleimide]",inhibition of the barium-preincubated protease (vWF degradation by SDS agarose electrophoresis and immunoblotting),vWF-cleaving protease [2],did not result in protease inhibition
same,protease inhibition with inhibitor also incorporated into the dialysis solution,vWF-cleaving protease [2],partial protease inhibition
"[Cl][Ni][Cl] [Ni^2+, NiCl2]",activation of the protease by metal ions,vWF-cleaving protease [1],no activation
"O=S(=O)(F)Cc1ccccc1 [PMSF, phenylmethylsulfonyl fluoride]",inhibition of the barium-preincubated protease (vWF degradation),vWF-cleaving protease [2],no inhibition
"N=C(N)NCCC[C@H](NC(=O)[C@@H]1CCCN1C(=O)[C@H](N)Cc1ccccc1)C(=O)CCl [PPACK, Diphenylalanylprolyl arginine-chloromethylketone]",effect of inhibitor on plasmin-induced reduction of high multimers of cryoprecipitate,plasmin,prevented
same,effect of inhibitor on plasmin degradation of r-vWF,plasmin,prevented
same,degradation of cryoprecipitate vWF by vWF protease on addition of inhibitor,vWF protease,could not be prevented
same,degradation of recombinant vWF by the protease in the presence of inhibitor,vWF protease,degraded identically
"[Cl-].[Cl-].[Sr+2] [Sr^2+, SrCl2]",activation of the protease by metal ions,vWF-cleaving protease [1],substantial activation
"Cc1ccc(S(=O)(=O)N[C@@H](CCCCN)C(=O)CCl)cc1 [TLCK, N-α-p-tosyl-L-lysine-chloromethylketone]",inhibition of the barium-preincubated protease (vWF degradation),vWF-cleaving protease [2],no inhibition
"Cc1ccc(S(=O)(=O)N[C@@H](Cc2ccccc2)C(=O)CCl)cc1 [TPCK, N-α-p-tosyl-L-phenylalanine-chloromethylketone]",inhibition of the barium-preincubated protease (vWF degradation),"vWF-cleaving protease [2]; inhibitor 1 mM, 15 minutes preincubation at 37° C.",no inhibition
CC(C)C[C@H](NC(=O)OCc1ccccc1)C(=O)N[C@@H](CC(C)C)C(=O)N[C@@H](Cc1ccc(O)cc1)C(=O)C=[N+]=[N-] [Z-Leu-Leu-Tyr-CHN2] (Cbz-Leu-Leu-Tyr-CHN2),effect of peptidyl-diazomethylketone inhibitors on proteolytic degradation of vWF,vWF-cleaving protease [2],active in the presence
"[N-]=[N+]=CC(=O)[C@H](Cc1ccccc1)NC(=O)[C@H](Cc1ccccc1)NC(=O)OCc1ccccc1 [Z-Phe-Phe-CH2, Z-Phe-Phe-CHN2] (Cbz-Phe-Phe-CHN2)",effect of peptidyl-diazomethylketone inhibitors on proteolytic degradation of vWF,vWF-cleaving protease [2],impaired the proteolytic degradation of vWF
CC(C)[C@H](NC(=O)OCc1ccccc1)C(=O)N[C@H](C(=O)N[C@@H](Cc1ccc(O)cc1)C(=O)C=[N+]=[N-])C(C)C [Z-Val-Val-Tyr-CHN2] (Cbz-Val-Val-Tyr-CHN2),effect of peptidyl-diazomethylketone inhibitors on proteolytic degradation of vWF,vWF-cleaving protease [2],impaired the proteolytic degradation of vWF
"[Cl-].[Cl-].[Zn+2] [Zn^2+, ZnCl2]",activation of the protease by metal ions,vWF-cleaving protease [1],no activation
"O=C(O)CC(O)(CC(=O)O)C(=O)O [citrate, Na3 -citrate]",inhibition of the barium-preincubated protease (vWF degradation by SDS agarose electrophoresis and immunoblotting),vWF-cleaving protease [2],partial inhibition
CC(=O)N[C@@H](CC(C)C)C(=O)N[C@@H](CC(C)C)C(=O)N[C@H](C=O)CCCNC(=N)N [leupeptin],inhibition of the barium-preincubated protease (vWF degradation),vWF-cleaving protease [2],no inhibition
aprotinin,effect of inhibitor on plasmin-induced reduction of high multimers of cryoprecipitate,plasmin,prevented
same,effect of inhibitor on plasmin degradation of r-vWF,plasmin,prevented
same,degradation of cryoprecipitate vWF by vWF protease on addition of inhibitor,vWF protease,could not be prevented
same,degradation of recombinant vWF by the protease in the presence of inhibitor,vWF protease,degraded identically
same,inhibition of the barium-preincubated protease (vWF degradation),vWF-cleaving protease [2],no inhibition
"r-vWF: Recombinant vWF factor produced according to FEBS-Letters 375, 259-262 (1995), singlet structure",change of r-vWF structure in control preparation,[3]; equal length of time at 37° C. in buffer media,no change of structure
same,change of r-vWF over time,"[3]; mixed with equal volume of vWF-deficient plasma, incubated for 48 hours",No change
